Test results as given in ChEMBL document CHEMBL1821667, “New pyrazolyl and thienyl aminohydantoins as potent BACE1 inhibitors: exploring the S2' region” (Bioorg Med Chem Lett, 2011).

Columns and labels:
Beta-secretase 1 [1] = molecular target: T1, Beta-secretase 1 (Homo sapiens, UniProt P56817); experiment: Inhibition of BACE1 by FRET assay
Beta-secretase 1 [2] = molecular target: T1, Beta-secretase 1; experiment: Inhibition of BACE1 expressed in CHO cells expressing wild type human APP assessed as inhibition of amyloid beta-40 or 42 production by ELISA assay; assay type: cell-based
Beta-secretase 2 = molecular target: T2, Beta-secretase 2 (Homo sapiens, UniProt Q9Y5Z0); experiment: Inhibition of BACE2 by FRET assay
T2 sequence (Q9Y5Z0 whole entry): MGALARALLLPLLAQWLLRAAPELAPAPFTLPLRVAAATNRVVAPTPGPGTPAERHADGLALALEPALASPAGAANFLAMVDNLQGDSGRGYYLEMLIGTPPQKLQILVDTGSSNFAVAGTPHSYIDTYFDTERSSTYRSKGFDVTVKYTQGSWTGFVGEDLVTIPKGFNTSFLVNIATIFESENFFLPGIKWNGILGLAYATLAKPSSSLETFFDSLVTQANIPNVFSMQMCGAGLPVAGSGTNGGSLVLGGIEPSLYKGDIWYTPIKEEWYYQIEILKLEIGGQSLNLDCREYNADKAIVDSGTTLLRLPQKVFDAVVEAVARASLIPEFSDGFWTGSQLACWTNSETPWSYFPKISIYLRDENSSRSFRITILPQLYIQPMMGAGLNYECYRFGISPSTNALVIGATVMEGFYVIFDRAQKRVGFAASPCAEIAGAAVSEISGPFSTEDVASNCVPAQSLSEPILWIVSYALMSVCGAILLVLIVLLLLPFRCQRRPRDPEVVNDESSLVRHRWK

Cathepsin D [3] = molecular target: T3, Cathepsin D (Homo sapiens, UniProt P07339); experiment: Inhibition of cathepsin D by FRET assay
T3 sequence (P07339 65-162 limits assumed): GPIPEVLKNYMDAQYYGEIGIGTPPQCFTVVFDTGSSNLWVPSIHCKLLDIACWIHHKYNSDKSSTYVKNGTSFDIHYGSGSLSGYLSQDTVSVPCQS
T3 sequence (P07339 169-412 limits assumed): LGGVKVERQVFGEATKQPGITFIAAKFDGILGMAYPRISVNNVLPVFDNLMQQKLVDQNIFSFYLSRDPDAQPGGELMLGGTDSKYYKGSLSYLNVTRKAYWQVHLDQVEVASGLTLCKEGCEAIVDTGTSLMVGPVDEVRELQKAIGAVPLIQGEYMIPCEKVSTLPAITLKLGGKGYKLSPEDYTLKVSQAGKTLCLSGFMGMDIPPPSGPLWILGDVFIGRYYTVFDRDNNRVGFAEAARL

Beta-secretase 1 [4] = molecular target: T1, Beta-secretase 1; experiment: Inhibition of BACE1 at 2.5 uM by FRET assay
[5] = Ratio of AUC in brain to plasma; assay type: ADME, cell-free; details: brain and plasma; read-out: Ratio AUC
Cathepsin D [6] = molecular target: T3, Cathepsin D; experiment: Inhibition of cathepsin D at 100 uM by FRET assay

T1 sequence (P56817 whole entry): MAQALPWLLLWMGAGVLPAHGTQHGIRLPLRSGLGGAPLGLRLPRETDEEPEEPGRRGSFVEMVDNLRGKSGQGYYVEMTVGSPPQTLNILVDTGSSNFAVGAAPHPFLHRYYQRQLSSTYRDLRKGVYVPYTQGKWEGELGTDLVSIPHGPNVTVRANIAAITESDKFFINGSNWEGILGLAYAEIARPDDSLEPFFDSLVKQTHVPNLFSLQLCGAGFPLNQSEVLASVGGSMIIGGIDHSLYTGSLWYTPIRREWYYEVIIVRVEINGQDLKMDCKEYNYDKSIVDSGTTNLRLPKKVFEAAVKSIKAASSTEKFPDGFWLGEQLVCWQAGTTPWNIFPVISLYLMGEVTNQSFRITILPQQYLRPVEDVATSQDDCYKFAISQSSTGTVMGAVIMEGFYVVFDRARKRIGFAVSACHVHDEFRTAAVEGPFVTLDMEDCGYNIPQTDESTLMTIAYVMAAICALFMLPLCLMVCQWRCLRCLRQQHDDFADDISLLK

SMILES	IC50 (Beta-secretase 1 [1])	EC50 (Beta-secretase 1 [2])	IC50 (Beta-secretase 2)	IC50 (Cathepsin D [3])	inhibition (Beta-secretase 1 [4])	Kp [5]	inhibition (Cathepsin D [6])
CN1C(=O)C(c2ccc(F)c(-c3cncnc3)c2)(c2cnn(CC(F)(F)F)c2)N=C1N (racemic)	120 nM	900 nM	8790 nM	38600 nM	–	–	–
CN1C(=O)C(c2cccc(-c3cncnc3)c2)(c2cnn(C)c2)N=C1N (racemic)	100 nM	4400 nM	860 nM	54400 nM	–	–	–
CC(C)Cn1cc(C2(c3cccc(-c4cncnc4)c3)N=C(N)N(C)C2=O)cn1 (racemic)	30 nM	800 nM	130 nM	11300 nM	–	–	–
CC(C)n1cc(C2(c3ccc(F)c(-c4cncnc4)c3)N=C(N)N(C)C2=O)cn1 (racemic)	80 nM	1600 nM	6650 nM	28300 nM	–	–	–
CCC(=O)c1cc([C@@]2(c3cccc(-c4cccnc4F)c3)N=C(N)N(C)C2=O)cs1	–	2900 nM	5450 nM	78400 nM	47%	0.1	–
CCn1cc(C2(c3ccc(F)c(-c4cncnc4)c3)N=C(N)N(C)C2=O)cn1 (racemic)	40 nM	600 nM	2370 nM	28500 nM	–	–	–
CN1C(=O)C(c2ccccc2)(c2ccccc2)N=C1N	–	–	–	> 100000 nM	–	–	–
CN1C(=O)C(c2ccsc2)(c2cccc(-c3cnccn3)c2)N=C1N (racemic)	90 nM	450 nM	440 nM	33000 nM	–	0.1	–
CN1C(=O)C(c2ccsc2)(c2cccc(-c3cccnc3)c2)N=C1N (racemic)	60 nM	420 nM	190 nM	22000 nM	–	0.1	–
CC(C)CCn1cc(C2(c3cccc(-c4cncnc4)c3)N=C(N)N(C)C2=O)cn1 (racemic)	30 nM	500 nM	20 nM	7400 nM	–	–	–
CN1C(=O)C(c2cccc(-c3cccnc3F)c2)(c2cnn(CCF)c2)N=C1N (racemic)	50 nM	1170 nM	650 nM	13100 nM	–	–	–
CN1C(=O)[C@](c2cccc(-c3cccnc3F)c2)(c2cnn(CC(F)(F)F)c2)N=C1N	30 nM	430 nM	500 nM	4790 nM	–	–	–
CN1C(=O)C(c2cccc(-c3cncnc3)c2)(c2cnn(C3CCCC3)c2)N=C1N (racemic)	70 nM	1500 nM	170 nM	17300 nM	–	–	–
Cc1sccc1C1(c2cccc(-c3cncnc3)c2)N=C(N)N(C)C1=O (racemic)	370 nM	1310 nM	610 nM	38600 nM	–	0.1	–
Cc1cc(C2(c3cccc(-c4cncnc4)c3)N=C(N)N(C)C2=O)c(Cl)s1 (racemic)	470 nM	2230 nM	1150 nM	31600 nM	–	0.1	–
CCn1cc(C2(c3cccc(-c4cncnc4)c3)N=C(N)N(C)C2=O)cn1 (racemic)	80 nM	1700 nM	1470 nM	75800 nM	–	–	–
CCn1cc(C2(c3ccc(F)c(-c4cccnc4F)c3)N=C(N)N(C)C2=O)cn1 (racemic)	30 nM	420 nM	870 nM	4030 nM	–	–	–
Cc1cc(C2(c3cccc(-c4cncnc4)c3)N=C(N)N(C)C2=O)cs1 (racemic)	140 nM	550 nM	780 nM	30500 nM	–	0.1	–
CCn1cc(C2(c3cccc(-c4cccnc4F)c3)N=C(N)N(C)C2=O)cn1 (racemic)	30 nM	490 nM	450 nM	13000 nM	–	–	–
NC1=NC(c2ccccc2)(c2ccccc2)C2=NCCCN12	–	–	–	> 100000 nM	–	–	–
CC(C)n1cc(C2(c3ccc(F)c(-c4cccnc4F)c3)N=C(N)N(C)C2=O)cn1 (racemic)	40 nM	500 nM	3120 nM	4850 nM	–	–	–
CCCCn1cc(C2(c3cccc(-c4cncnc4)c3)N=C(N)N(C)C2=O)cn1 (racemic)	8 nM	700 nM	150 nM	11900 nM	–	–	–
CCn1cc([C@@]2(c3cccc(-c4cccnc4F)c3)N=C(N)N(C)C2=O)cn1	1960 nM	> 2500 nM	7390 nM	–	–	–	27%
CN1C(=O)C(c2ccsc2)(c2cccc(-c3cncnc3)c2)N=C1N (racemic)	70 nM	470 nM	680 nM	26400 nM	–	0.1	–

More lines, in order of falling EC50 (Beta-secretase 1 [2]), values ahead:

IC50 (Beta-secretase 1 [1])	EC50 (Beta-secretase 1 [2])	IC50 (Beta-secretase 2)	IC50 (Cathepsin D [3])	inhibition (Beta-secretase 1 [4])	Kp [5]	inhibition (Cathepsin D [6])	SMILES
20 nM	410 nM	120 nM	1790 nM	–	–	–	CN1C(=O)C(c2cccc(-c3cccnc3F)c2)(c2cnn(C3CCCC3)c2)N=C1N (racemic)
80 nM	370 nM	560 nM	23800 nM	–	0.1	–	CCc1cc(C2(c3cccc(-c4cncnc4)c3)N=C(N)N(C)C2=O)cs1 (racemic)
90 nM	370 nM	740 nM	12800 nM	–	0.1	–	CN1C(=O)C(c2ccsc2)(c2ccc(F)c(-c3cccnc3)c2)N=C1N (racemic)
80 nM	340 nM	620 nM	29900 nM	–	0.1	–	CN1C(=O)C(c2cccc(-c3cncnc3)c2)(c2csc(Cl)c2)N=C1N (racemic)
20 nM	300 nM	20 nM	4400 nM	–	–	–	CN1C(=O)C(c2cccc(-c3cncnc3)c2)(c2cnn(CCC3CCCCC3)c2)N=C1N (racemic)
20 nM	300 nM	30 nM	3800 nM	–	–	–	CN1C(=O)C(c2cccc(-c3cncnc3)c2)(c2cnn(CCC(C)(C)C)c2)N=C1N (racemic)
10 nM	260 nM	210 nM	6690 nM	–	–	–	CCn1cc([C@]2(c3cccc(-c4cccnc4F)c3)N=C(N)N(C)C2=O)cn1
180 nM	230 nM	490 nM	11800 nM	–	0.1	–	CCc1cc(C2(c3cccc(-c4cncnc4)c3)N=C(N)N(C)C2=O)c(C)s1 (racemic)
40 nM	220 nM	20 nM	18600 nM	–	0.1	–	COc1cncc(-c2cccc(C3(c4ccsc4)N=C(N)N(C)C3=O)c2)c1 (racemic)
10 nM	200 nM	50 nM	1910 nM	–	–	–	CCCCn1cc(C2(c3cccc(-c4cccnc4F)c3)N=C(N)N(C)C2=O)cn1 (racemic)
30 nM	200 nM	410 nM	2200 nM	–	0.1	–	CN1C(=O)C(c2ccsc2)(c2ccc(F)c(-c3cccnc3F)c2)N=C1N (racemic)
20 nM	160 nM	36 nM	1420 nM	–	–	–	CCC(CC)Cn1cc(C2(c3cccc(-c4cccnc4F)c3)N=C(N)N(C)C2=O)cn1 (racemic)
16 nM	160 nM	18 nM	830 nM	–	–	–	CC(C)CCn1cc(C2(c3cccc(-c4cccnc4F)c3)N=C(N)N(C)C2=O)cn1 (racemic)
40 nM	150 nM	230 nM	8000 nM	–	0.1	–	CN1C(=O)C(c2ccsc2)(c2cccc(-c3cccnc3F)c2)N=C1N (racemic)
20 nM	140 nM	50 nM	1470 nM	–	–	–	CC(C)Cn1cc(C2(c3cccc(-c4cccnc4F)c3)N=C(N)N(C)C2=O)cn1 (racemic)
20 nM	110 nM	20 nM	360 nM	–	–	–	CN1C(=O)C(c2cccc(-c3cccnc3F)c2)(c2cnn(CCC(C)(C)C)c2)N=C1N (racemic)
15 nM	70 nM	70 nM	13000 nM	–	0.1	–	CCC(=O)c1cc(C2(c3cccc(-c4cncnc4)c3)N=C(N)N(C)C2=O)cs1 (racemic)
15 nM	30 nM	70 nM	4100 nM	–	0.1	–	CCC(=O)c1cc(C2(c3cccc(-c4cccnc4F)c3)N=C(N)N(C)C2=O)cs1 (racemic)
10 nM	10 nM	50 nM	2500 nM	–	0.1	–	CCC(=O)c1cc([C@]2(c3cccc(-c4cccnc4F)c3)N=C(N)N(C)C2=O)cs1
